Tested on: Mycobacterium ranae
Test: Assay on anti-mycobacterial activity (suspension dilution method)
Assay type: cell-based
Details: M. ranae, 48 h at 37° C., visual evaluation of growth inhibition
Experimental: To assay the anti-mycobacterial efficacy, Mycobacterium ranae that represents a non-human pathogenic mycobacterium having a similar sensitivity against chemotherapeutic agents like M. tuberculosis was used. The suspension dilution method was used to determine the minimal inhibitory concentration (MHC). The extract of Pelargonium sidoides was solved in DMSO and serially diluted to obtain the required concentrations. Pelargonium extract or the solvent was added in a volume of 10 μl to 48-well microtiter plates containing 990 μl of an M. ranae suspension (ATCC 10) in a concentration of 1-5×10^5 CFU/ml Brain-Heart Infusion Broth (Difco, USA) per well. The maximum concentration of the solvent (DMSO) was 1%. Pelargonium extract was tested at concentrations between 100 and 0.03 μg/ml. All tests were carried out twice. The plates were incubated for 48 h at 37° C. and then the inhibition of the growth of the bacteria was evaluated visually.

Gentamicin
minimal inhibitory concentration (MHC): 0.3 µg/mL

Reference: patent US20060263448A1, “Use of extracts from roots of pelargonium sidoides and pelargonium reniforme” (priority 2004, published 2006)
